US9968566B2, “Pharmaceutical composition for prophylaxis and/or treatment of corneal and conjunctival diseases or presbyopia containing stilbene compound as active ingredient” (KEIO UNIVERSITY, priority 2014, dated 2018)
Values joined by “and” are separate entries in the source; they are usually repeats but may differ in a detail not shown here. Identical values can stand only once. Blank lines part the entries; values can stand above or below the molecule they belong to.

Assays:
[1] = Measurement of radical scavenging activity (galvinoxyl radical, stopped flow method); assay type: biochemical; settings: acetonitrile, deaerated with argon, absorbance at 428 nm
Protocol: Unlike active oxygen, a galvinoxyl radical (GO•), which is a relatively stable organic oxygen radical having a characteristic peak absorption at 428 nm, may be used to perform kinetic analysis in terms of the radical scavenging ability of antioxidants using ultraviolet visible spectroscopy.
In this experiment, the radical scavenging rate was measured by a stopped flow method. The following reagent was used: • Acetonitrile (Nacalai Tesque, Inc., 00433-95); and • Galvinoxyl Radical (Aldrich, G30-7).
A solution of GO• in acetonitrile (about 2.4×10^−6 M) was bubbled with argon for 7 minutes to remove molecular oxygen. […] Subsequently, the acetonitrile solutions of GO• and the compounds were simultaneously mixed to measure changes in the peak absorption of GO• (at 428 nm) over time by a stopped flow method.
Under conditions in which the concentration of each antioxidant is 10 times or more than that of GO• ([Antioxidant agent]>10[GO•]), the reduction in the absorbance at 428 nm derived from GO• follows the pseudo-first-order kinetics (equation (1)) with respect to the concentration of each antioxidant agent (antioxidant): −d[GO•]/dt=kobs[GO•] […] Integration of both sides of equation (1) leads to equation (2): ln([GO•]/[GO•]0)=−kobst (2), wherein [GO•]o is a concentration of GO• when t=0. […]

[2] = Electron spin resonance (ESR) measurement test, amount of hydroxyl radical; assay type: biochemical; settings: 5 μM, 50 μM and 500 μM added to standard solution; activity order R<DR<DHR
Protocol: (§1) Resveratrol (R), as well as dimethyl resveratrol (DR) and dimethylhydroxy resveratrol (DHR), which are compounds of the present invention, were added to radicals serving as standard substances, and the amounts of remaining tyrosine radicals and hydroxyl radicals were assessed. Specifically, a standard solution comprising a 50 mM NaPi buffer (pH 7.4), 10 mM DMPO, 1.6 mM myoglobin, and 1 mM H2O2 was prepared using myoglobin as a tyrosine radical. Further, a standard solution comprising a 50 mM NaPi buffer (pH 7.4), 10 mM DMPO, 0.1 mM Fe^2+-EDTA, and 1 mM H2O2 was prepared using Fe^2+-EDTA as a hydroxyl radical. […] The ESR was set as follows: microwave power: 10 mW; adjusted frequency: 100 KHz; adjusted magnetic field: 0.1 G; receiver gain: 1000; and time constant: 0.3 s. FIGS. 1(A) and 1(B) show the results.

[3] = tested on: crystalline lens; assay: Smoking rat presbyopia model (Example 3): crystalline lens hardness; assay type: in vivo, Sprague-Dawley rats; settings: smoking rats, 300 μM PBS solution, 5 μL instilled 4 times per day for 11 days; smoking group 1.04±0.05, non-smoking 0.75±0.04
Protocol: Six-week-old male Sprague-Dawley rats were subjected to smoking treatment to develop dry-eye, presbyopia models. Specifically, a treatment in which mainstream smoke (300 mL) was added to a rat-containing chamber 6 times at 30-minute intervals was performed for 12 days to induce keratoconjunctival epithelial damage. […] Each group consisted of 4 animals (8 eyes). After the 11-day smoking treatment, the body weight, tear volume, fluorescent staining score, and crystalline lens hardness were measured. • 0: not stained (no punctate fluorescence) • 1: weak punctate fluorescence • 2: relatively intense punctate fluorescence • 3: strong punctate fluorescence The crystalline lens hardness was measured by combining an electronic weighing scale and height gauge. A crystalline lens whose minor axis length had been previously measured was placed on an electronic weighing scale, and the weight was set to 0. The handle of a height gauge was used above the crystalline lens to allow the end portion to be in contact with the crystalline lens. Further using the handle, the end portion was lowered about 5 to 10% of the minor axis length to apply a pressure on the crystalline lens. The change in the weight at this time was measured with the electronic weighing scale, and the weight was divided by the moving distance measured with the height gauge. The resulting value was considered to be hardness. A larger value represents more hardness. For statistical analysis of the body weight, tear volume, and crystalline lens hardness, a significant difference test was performed using the Dunnett method in terms of each group with respect to the smoking group.

[4] = tested on: keratoconjunctival epithelial damage caused by dry eye; assay: Therapeutic efficacy test using smoking rat (Example 3): tear volume and fluorescein staining score; assay type: in vivo, Sprague-Dawley rats; settings: smoking rats, 300 μM PBS solution, 5 μL instilled 4 times per day for 11 days; for average fluorescein score (fluorescent staining score): smoking group 3.7±1.0, non-smoking 0.8±1.0; for tear volume (cotton thread test, length of wet portion): smoking group 10.0±5.0, non-smoking 14.0±9.1
Protocol: In this experiment, both eyes of each animal were used. The same drug solution was administered to both eyes of each animal, and a comparison was made among groups.
Six-week-old male Sprague-Dawley rats were subjected to smoking treatment to develop dry-eye, presbyopia models.
Specifically, a treatment in which mainstream smoke (300 mL) was added to a rat-containing chamber 6 times at 30-minute intervals was performed for 12 days to induce keratoconjunctival epithelial damage. […] Each group consisted of 4 animals (8 eyes).
After the 11-day smoking treatment, the body weight, tear volume, fluorescent staining score, and crystalline lens hardness were measured.
To determine the tear volume, tears accumulated in the cornea of rat were measured in accordance with the cotton thread test. Specifically, after the rats were anesthetized with ocular instillation of oxybuprocaine hydrochloride, a cotton thread was inserted between the palpebra and eyeball for 60 seconds, and tears were collected. The tear volume was assessed by measuring the length (mm) of the wet portion in the cotton thread.
After the completion of ocular instillation, a damaged portion in corneal epithelium was stained with a fluorescent dye (fluorescein). Then, the degree of corneal epithelial damage was assessed based on the following criteria by scoring each section of the entire cornea, which was divided into a total of 9 sections, i.e., upper, middle, and lower, and left, center, and right sections, and calculating the total value. Thereafter, the score values were compared among the groups for analysis. For statistical analysis, a significant difference test was performed by using the Dunnett method in terms of each group with respect to the smoking group. For unbiased evaluation, the content of the drug solution administered to each group was blinded from the initiation of ocular instillation to the scoring of the corneal epithelial damage, and collated after scoring.
Evaluation Criteria for Scoring of Fluorescein Staining of Corneal Epithelium
• 0: not stained (no punctate fluorescence) • 1: weak punctate fluorescence • 2: relatively intense punctate fluorescence • 3: strong punctate fluorescence The crystalline lens hardness was measured by combining an electronic weighing scale and height gauge. A crystalline lens whose minor axis length had been previously measured was placed on an electronic weighing scale, and the weight was set to 0. The handle of a height gauge was used above the crystalline lens to allow the end portion to be in contact with the crystalline lens. Further using the handle, the end portion was lowered about 5 to 10% of the minor axis length to apply a pressure on the crystalline lens. The change in the weight at this time was measured with the electronic weighing scale, and the weight was divided by the moving distance measured with the height gauge. The resulting value was considered to be hardness. A larger value represents more hardness.
For statistical analysis of the body weight, tear volume, and crystalline lens hardness, a significant difference test was performed using the Dunnett method in terms of each group with respect to the smoking group.

[5] = Electron spin resonance (ESR) measurement test, amount of tyrosine radical; assay type: biochemical; settings: 5 μM, 50 μM and 500 μM added to standard solution; activity order R<DR<DHR
Protocol: as §1

[6] = tested on: corneal epithelium; assay: Safety test: hematoxylin-eosin staining of rat cornea; assay type: in vivo; settings: 300 μM PBS solution, treated for one week
Description: FIGS. 8(A) and 8(B) show photographs of each tissue section.

[7] = tested on: keratoconjunctival epithelial damage caused by dry eye; assay: Therapeutic efficacy test using smoking rat (Example 5), comparison with Diquas; assay type: in vivo, Sprague-Dawley rats; settings: for body weight: smoking rats after 11-day treatment, instilled 5 μL 4 times per day, smoking group 280.0±5.8; for average fluorescein score (fluorescent staining score) / tear volume (cotton thread test): smoking rats, DR 300 μM in PBS or Diquas 3%, 5 μL 4 times per day for 11 days; for average fluorescein score (fluorescent staining score): smoking group 4.6±1.2, non-smoking 1.2±1.2; for tear volume (cotton thread test): smoking group 11.3±9.0, non-smoking 17.6±9.1
Protocol: In this experiment, both eyes of each animal were used. The same drug solution was administered to both eyes of each animal, and a comparison was made among groups. Six-week-old male Sprague-Dawley rats were subjected to smoking treatment to develop dry-eye models. Specifically, a treatment in which mainstream smoke (300 mL) was added to a rat-containing chamber 6 times at 30-minute intervals was performed for 12 days to induce a keratoconjunctival epithelial damage. […] The tear volume and fluorescent staining score were measured in accordance with the method described in Example 3. For statistical analysis, a significant difference test was performed using the Dunnett method in terms of each group with respect to the smoking group.

[8] = Stability test at 25° C. and 60% RH, amount by HPLC; assay type: physicochemical; settings: for amount of compound remaining, single runs: first/second/third time
Protocol: After a constant period of time, the amount of each compound was measured by HPLC to evaluate the stability. The amount of the compound was calculated in accordance with: (The amount of compound after a constant period of time)/(the amount of compound at the time when the test was initiated)×100(%).

SMILES: C/C(=C(/C)c1ccc(O)c(O)c1)c1cc(O)cc(O)c1 [DHR, (E)-4-[3-(3,5-dihydroxyphenyl)but-2-en-2-yl]benzene-1,2-diol]
radical scavenging activity (constant kHT of rate of hydrogen transfer to GO•) [1]: 2300 M⁻¹ s⁻¹ | radical generation (amount of hydroxyl radical, ESR) [2]: reduced radical generation in a concentration-dependent manner | crystalline lens elasticity (hardness; larger value = harder) [3]: 0.75±0.05 | average fluorescein score (fluorescent staining score) [4]: 1.5±0.5 | tear volume (cotton thread test, length of wet portion) [4]: 13.8±11.1 mm | radical generation (amount of tyrosine radical, ESR) [5]: reduced radical generation in a concentration-dependent manner

amount of compound remaining, average ([8]; 168 h): 99% | amount of compound remaining, average ([8]; 336 h): 98% | amount of compound remaining, average ([8]; 504 h): 96% | amount of compound remaining, average ([8]; 672 h): 94% | amount of compound remaining, average ([8]; buffer, 24 h, 10 mM): 99% | amount of compound remaining, average ([8]; buffer, 48 h, 10 mM): 96% | amount of compound remaining, average ([8]; buffer, 72 h, 10 mM): 94% | amount of compound remaining, average ([8]; buffer, 168 h, 10 mM): 88% | amount of compound remaining, average ([8]; buffer, 336 h, 10 mM): 76%
SMILES: C/C(=C(/C)c1cc(O)cc(O)c1)c1ccc(O)cc1 [DR, (E)-5-[3-(4-hydroxyphenyl)but-2-en-2-yl]benzene-1,3-diol]
radical scavenging activity (constant kHT of rate of hydrogen transfer to GO•) [1]: 0.96 M⁻¹ s⁻¹ | radical generation (amount of hydroxyl radical, ESR) [2]: reduced radical generation in a concentration-dependent manner | crystalline lens elasticity (hardness; larger value = harder) [3]: 0.86±0.06 | morphological effects on the corneal epithelium (HE staining) [6]: did not show morphological effects on the corneal epithelium | average fluorescein score (fluorescent staining score) [4]: 2.3±0.5 | tear volume (cotton thread test, length of wet portion) [4]: 8.3±4.9 mm | body weight [7]: 271.0 ± 7.5 g | average fluorescein score (fluorescent staining score) [7]: 2.1±0.8 | tear volume (cotton thread test) [7]: 19.3±11.2 mm | radical generation (amount of tyrosine radical, ESR) [5]: reduced radical generation in a concentration-dependent manner

amount of compound remaining, average ([8]; 10 mM solution (10% DMSO in water), 1 week, 25° C. 60% RH, average of three runs): 82% | amount of compound remaining, single runs ([8]; 10 mM solution (10% DMSO in water), 1 week, 25° C. 60% RH): 80% and 82% and 85% | amount of compound remaining, average ([8]; 10 mM solution (10% DMSO in water), 2 weeks, 25° C. 60% RH, average of three runs): 64% | amount of compound remaining, single runs ([8]; 10 mM solution (10% DMSO in water), 2 weeks, 25° C. 60% RH): 59% and 65% and 68% | amount of compound remaining, average ([8]; 10 mM solution (10% DMSO in water), 1 day, 25° C. 60% RH, average of three runs): 98% | amount of compound remaining, single runs ([8]; 10 mM solution (10% DMSO in water), 1 day, 25° C. 60% RH): 98% and 99% and 96% | amount of compound remaining, average ([8]; 10 mM solution (10% DMSO in water), 2 days, 25° C. 60% RH, average of three runs): 95% | amount of compound remaining, single runs ([8]; 10 mM solution (10% DMSO in water), 2 days, 25° C. 60% RH): 95% and 96% | amount of compound remaining, average ([8]; 10 mM solution (10% DMSO in water), 3 days, 25° C. 60% RH, average of three runs): 91% | amount of compound remaining, single runs ([8]; 10 mM solution (10% DMSO in water), 3 days, 25° C. 60% RH): 90% and 93% | amount of compound remaining, average ([8]; solid, 1 week, 25° C. 60% RH, average of three runs): 99% | amount of compound remaining, single runs ([8]; solid, 1 week, 25° C. 60% RH): 100% and 101% and 97% | amount of compound remaining, average ([8]; solid, 2 weeks, 25° C. 60% RH, average of three runs): 95% | amount of compound remaining, single runs ([8]; solid, 2 weeks, 25° C. 60% RH): 96% and 94% | amount of compound remaining, average ([8]; solid, 3 weeks, 25° C. 60% RH, average of three runs): 91% | amount of compound remaining, single runs ([8]; solid, 3 weeks, 25° C. 60% RH): 91% and 90% and 92% | amount of compound remaining, average ([8]; solid, 4 weeks, 25° C. 60% RH, average of three runs): 86% | amount of compound remaining, single runs ([8]; solid, 4 weeks, 25° C. 60% RH): 88% and 86% and 85%
SMILES: Oc1ccc(/C=C/c2cc(O)cc(O)c2)cc1 [Resveratrol, trans-1,2-(3,4′,5-trihydroxydiphenyl)ethylene, reference compound]
radical generation (amount of hydroxyl radical, ESR) [2]: reduced radical generation in a concentration-dependent manner | crystalline lens elasticity (hardness; larger value = harder) [3]: 0.87±0.06 | tear volume (cotton thread test, length of wet portion) [4]: 6.9±4.3 mm | radical generation (amount of tyrosine radical, ESR) [5]: reduced radical generation in a concentration-dependent manner

SMILES: O=c1ccn([C@@H]2O[C@H](COP(=O)(O)OP(=O)(O)OP(=O)(O)OP(=O)(O)OC[C@H]3O[C@@H](n4ccc(=O)[nH]c4=O)[C@H](O)[C@@H]3O)[C@@H](O)[C@H]2O)c(=O)[nH]1 [diquafosol sodium, reference compound]
body weight [7]: 273.8 ± 4.3 g | average fluorescein score (fluorescent staining score) [7]: 4.3±1.6 | tear volume (cotton thread test) [7]: 11.0±6.5 mm
